Tests used:
[1] = Chemiluminescence measurements with DNPO (printed DMPO in table 2) and H2O2; assay type: physicochemical; settings: DMPO = bis(dinitro-2,4 phenyl)oxalate; for RC = chemiluminescence quantum efficiency: 10^-3 mole/l coumarin; for RE = excitation efficiency: RC = Rex × RF
Procedure: (§1) The absorbance measurements were carried out with a Jobin Yvon JY3 spectrophotometer. The chemiluminescence measurements were obtained by using a Jobin Yvon JY4 spectrofluorimeter with 10 nm slit widths. The cell for the liquid samples is a 10×10 mm quart cell with a capacity of 3 ml and filled with 2 ml of solution, which corresponds to a real solution volume exposed to the photomultiplier of 1.35 ml.
(§2) In order to determine the chemiluminescence quantum efficiencies Rc, the intensity was estimated as a function of time at the emission maximum. When the intensity decrease is relatively low, the emission spectrum is plotted and then the intensity is followed as a function of time until it has dropped to 2% of the maximum intensity.
(§3) The other luminescence parameters are measured directly. These consist of the maximum intensity (lmax), the time for reaching the maximum intensity (Tmax) and the time for reaching half the maximum intensity following the maximum time (T1/2).
(§4) The chemi luminescence efficiency Rc is calculated by the Rauhut method described in J. Am. Chem. Soc., 88, 15, 1966, p.3604.
(§5) The excitation efficiency Rex is determined on the basis of the formula: […]
(§6) For chemiluminescence measurements with TCPO, to 1 ml of the solution containing 10^-3 mole/l of coumarin are added 0.5 ml of a 2·10^-3 mole/l TCPO solution in ethyl acetate, 0.5 ml of a 2·10^-2 mole/l H2 O2 solution in acetone and 10 μl of a 0.1 mole/l imidazole nitrate buffer at pH 7.5. When DNPO is used, to the same solution of coumarin in acetone are added 0.5 ml of a 10^-3 mole/l DNPO solution in ethyl acetate and 0.5 ml of a 10^-2 mole/l H2 O2 solution in acetone.

[2] = Fluorescence measurements (quantum efficiency vs quinine disulphate, sensitivity); assay type: physicochemical; settings: for S = fluorescence sensitivity: acetone/ethyl acetate 75:25; for RF = fluorescence quantum efficiency: acetone/ethyl acetate 75:25, 10^-6 mole/l coumarin, 20 ± 2° C., vs quinine disulphate
Procedure: The fluorescence measurements are carried out with a Perkin Elmer LS5 spectrifluorometer with 2 nm slit widths for two monochromators.
(§7) Fluorescence and Absorbance Measurements
(§8) These measurements were carried out at 20^+ 2° C. and the quantum efficiencies of fluorescence RF of coumarins-1, 311 and 102 were determined compared with quinine disulphate, whose fluorescence quantum efficiency is 0.546 using the Parker method described in Analyst, 85, 1960, p. 587 using a 2 mg/l quinine disulphate solution in 0.1N H2 SO4.
(§9) For the coumarins, use was made of a solution of acetone and ethyl acetate in a volume ratio of 75:25 with a 10^-6 mole/l coumarin concentration ensuring in each case an absorbance below 0.05.

[3] = Absorbance measurements (molecular extinction coefficient); assay type: physicochemical; settings: acetone/ethyl acetate 75:25, 10^-6 mole/l coumarin
Procedure: as §1, §7, §8, §9

[4] = Chemiluminescence measurements with TCPO and H2O2; assay type: physicochemical; settings: TCPO = bis(trichloro-2,4,6 phenyl) oxalate; for RC = chemiluminescence quantum efficiency: 10^-3 mole/l coumarin, imidazole nitrate buffer pH 7.5; for RE = excitation efficiency: RC = Rex × RF
Procedure: as §1, §2, §3, §4, §5, §6

[5] = Comparison of fluorescence, absorbance and chemiluminescence properties of coumarin nuclei; assay type: physicochemical; settings: compared with coumarine-1 and coumarine-311, tables 1 and 2
Procedure: The fluorescence measurements are carried out with a Perkin Elmer LS5 spectrifluorometer with 2 nm slit widths for two monochromators. The absorbance measurements were carried out with a Jobin Yvon JY3 spectrophotometer. The chemiluminescence measurements were obtained by using a Jobin Yvon JY4 spectrofluorimeter with 10 nm slit widths. The cell for the liquid samples is a 10×10 mm quart cell with a capacity of 3 ml and filled with 2 ml of solution, which corresponds to a real solution volume exposed to the photomultiplier of 1.35 ml. […] For the coumarins, use was made of a solution of acetone and ethyl acetate in a volume ratio of 75:25 with a 10^-6 mole/l coumarin concentration ensuring in each case an absorbance below 0.05. […] When DNPO is used, to the same solution of coumarin in acetone are added 0.5 ml of a 10^-3 mole/l DNPO solution in ethyl acetate and 0.5 ml of a 10^-2 mole/l H2 O2 solution in acetone.

[6] = Chemiluminescence with TCPO and H2O2 as a function of the coumarin-102 concentration; assay type: physicochemical; settings: for Imax (maximum intensity) / RC × 10^4 (chemiluminescence efficiency) / T1/2 (time for reaching half the maximum intensity following the maximum time) / Tmax (time for reaching the maximum intensity): TCPO and H2O2
Procedure: The absorbance measurements were carried out with a Jobin Yvon JY3 spectrophotometer. The chemiluminescence measurements were obtained by using a Jobin Yvon JY4 spectrofluorimeter with 10 nm slit widths. The cell for the liquid samples is a 10×10 mm quart cell with a capacity of 3 ml and filled with 2 ml of solution, which corresponds to a real solution volume exposed to the photomultiplier of 1.35 ml. In order to determine the chemiluminescence quantum efficiencies Rc, the intensity was estimated as a function of time at the emission maximum. […] The other luminescence parameters are measured directly. These consist of the maximum intensity (lmax), the time for reaching the maximum intensity (Tmax) and the time for reaching half the maximum intensity following the maximum time (T1/2). The chemi luminescence efficiency Rc is calculated by the Rauhut method described in J. Am. Chem. […] When DNPO is used, to the same solution of coumarin in acetone are added 0.5 ml of a 10^-3 mole/l DNPO solution in ethyl acetate and 0.5 ml of a 10^-2 mole/l H2 O2 solution in acetone.

[7] = Chemiluminescence as a function of the pH of the solution; assay type: physicochemical
Procedure: as §1, §2, §3, §4, §6
Table 4 gives the variations of the chemiluminescence efficiency, lmax, Tmax and T1/2, as a function of the pH of the solution. […] However, the values for Tmax and T1/2 decrease when the pH increases beyond 5.

[8] = Storage stability of luminarine-7 in dimethyl formamide solution; assay type: physicochemical; settings: -20° C., in the presence of P2O5
Procedure: (§10) Stirring takes place for 2 hours and then the dicyclohexylurea formed is filtered. The remaining product, luminarine-7, is kept in solution in dimethyl formamide.

[9] = Hydrosolubility of a dried aliquot of luminarine-7; assay type: physicochemical; settings: dried aliquot portion
Procedure: as §10

[10] = reference standard; 2 mg/l in 0.1N H2SO4; cited from earlier work

CCN(CC)c1ccc2c(C)cc(=O)oc2c1 [COUMARINE-1, dimethylamino-7 methyl-4 coumarin]
RC = chemiluminescence quantum efficiency [1]: 0.18 10^2 E · mole^-1
RE = excitation efficiency [1]: 0.33 10^2
S = fluorescence sensitivity [2]: 57 10^3
RF = fluorescence quantum efficiency [2]: 0.55
ε = molecular extinction coefficient, 365 nm [3]: 38 000
RC = chemiluminescence quantum efficiency [4]: 0.37 10^2 E · mole^-1
RE = excitation efficiency [4]: 0.67 10^2

Cc1cc(=O)oc2c3c4c(cc12)CCCN4CCC3 [COUMARINE-102, tetrahydro-2,3,5,6,7,1H,5H,11H-(1)-benzopyrano(6,7,8-ij)methyl-9 quinolizinone-11]
RC = chemiluminescence quantum efficiency [1]: 0.26 10^2 E · mole^-1
RE = excitation efficiency [1]: 0.45 10^2
S = fluorescence sensitivity [2]: 36 10^3
RF = fluorescence quantum efficiency [2]: 0.57
fluorescence, absorbance and chemiluminescence properties [5]: better fluorescence, absorbance and chemiluminescece properties
Imax (maximum intensity) ([6]; (C102) 1.4 × 10^-3): 301 A.U.
RC × 10^4 (chemiluminescence efficiency) ([6]; (C102) 1.4 × 10^-3): 12.0 E · mole^-1
T1/2 (time for reaching half the maximum intensity following the maximum time) ([6]; (C102) 1.4 × 10^-3): 0.10 min
Tmax (time for reaching the maximum intensity) ([6]; (C102) 1.4 × 10^-3): 0.2 min
Imax (maximum intensity) ([6]; (C102) 1.4 × 10^-6): 75 A.U.
RC × 10^4 (chemiluminescence efficiency) ([6]; (C102) 1.4 × 10^-6): 4.14 E · mole^-1
T1/2 (time for reaching half the maximum intensity following the maximum time) ([6]; (C102) 1.4 × 10^-6): 0.15 min
Tmax (time for reaching the maximum intensity) ([6]; (C102) 1.4 × 10^-6): 0.2 min
Imax (maximum intensity) ([6]; (C102) 1.4 × 10^-7): 31 A.U.
RC × 10^4 (chemiluminescence efficiency) ([6]; (C102) 1.4 × 10^-7): 2.31 E · mole^-1
T1/2 (time for reaching half the maximum intensity following the maximum time) ([6]; (C102) 1.4 × 10^-7): 0.12 min
Tmax (time for reaching the maximum intensity) ([6]; (C102) 1.4 × 10^-7): 0.2 min
Imax (maximum intensity) ([6]; (C102) 1.4 × 10^-8): 3.2 A.U.
RC × 10^4 (chemiluminescence efficiency) ([6]; (C102) 1.4 × 10^-8): 0.40 E · mole^-1
T1/2 (time for reaching half the maximum intensity following the maximum time) ([6]; (C102) 1.4 × 10^-8): 0.10 min
Tmax (time for reaching the maximum intensity) ([6]; (C102) 1.4 × 10^-8): 0.2 min
Imax (maximum intensity) ([6]; (C102) 1.4 × 10^-9): 0.3 A.U.
RC × 10^4 (chemiluminescence efficiency) ([6]; (C102) 1.4 × 10^-9): 0.20 E · mole^-1
T1/2 (time for reaching half the maximum intensity following the maximum time) ([6]; (C102) 1.4 × 10^-9): 0.08 min
Tmax (time for reaching the maximum intensity) ([6]; (C102) 1.4 × 10^-9): 0.2 min
chemiluminescence efficiency as a function of concentration ([6]; TCPO and H2O2, table 3): chemiluminescence efficiency increases with the coumar in-102 concentration
ε = molecular extinction coefficient, 365 nm [3]: 23000 M⁻¹ cm⁻¹
Imax (maximum intensity) ([7]; pH 4): 24 A.U.
RC × 10^4 (chemiluminescence efficiency) ([7]; pH 4): 1.52 E · mole^-1
T1/2 (time for reaching half the maximum intensity following the maximum time) ([7]; pH 4): 5.0 min
Tmax (time for reaching the maximum intensity) ([7]; pH 4): 0.8 min
Imax (maximum intensity) ([7]; pH 5): 17 A.U.
RC × 10^4 (chemiluminescence efficiency) ([7]; pH 5): 1.58 E · mole^-1
T1/2 (time for reaching half the maximum intensity following the maximum time) ([7]; pH 5): 6.0 min
Tmax (time for reaching the maximum intensity) ([7]; pH 5): 1.0 min
Imax (maximum intensity) ([7]; pH 6): 25 A.U.
RC × 10^4 (chemiluminescence efficiency) ([7]; pH 6): 2.34 E · mole^-1
T1/2 (time for reaching half the maximum intensity following the maximum time) ([7]; pH 6): 5.6 min
Tmax (time for reaching the maximum intensity) ([7]; pH 6): 0.8 min
Imax (maximum intensity) ([7]; pH 7): 110 A.U.
RC × 10^4 (chemiluminescence efficiency) ([7]; pH 7): 2.23 E · mole^-1
T1/2 (time for reaching half the maximum intensity following the maximum time) ([7]; pH 7): 1.8 min
Tmax (time for reaching the maximum intensity) ([7]; pH 7): 0.4 min
Imax (maximum intensity) ([7]; pH 8): 245 A.U.
RC × 10^4 (chemiluminescence efficiency) ([7]; pH 8): 1.60 E · mole^-1
T1/2 (time for reaching half the maximum intensity following the maximum time) ([7]; pH 8): 0.4 min
Tmax (time for reaching the maximum intensity) ([7]; pH 8): 0.2 min
RC = chemiluminescence quantum efficiency [4]: 0.37 10^2 E · mole^-1
RE = excitation efficiency [4]: 0.65 10^2

Cc1cc(=O)oc2cc(N(C)C)ccc12 [COUMARINE-311, dimethylamino-7 methyl-4 coumarin]
RC = chemiluminescence quantum efficiency [1]: 0.13 10^2 E · mole^-1
RE = excitation efficiency [1]: 0.24 10^2
S = fluorescence sensitivity [2]: 40 10^3
RF = fluorescence quantum efficiency [2]: 0.52
ε = molecular extinction coefficient, 365 nm [3]: 26900 M⁻¹ cm⁻¹
RC = chemiluminescence quantum efficiency [4]: 0.17 10^2 E · mole^-1
RE = excitation efficiency [4]: 0.32 10^2

O=C(CCC(=O)ON1C(=O)CCC1=O)NCCOCCOCCOCCOCCOCCNC(=O)Cc1cc(=O)oc2c3c4c(cc12)CCCN4CCC3 [luminarine-7]
storage stability [8]: several months at -20 °C without any deterioration
hydrosolubility [9]: total hydrosolubility

C=CC1CN2CCC1CC2C(O)c1ccnc2ccc(OC)cc12 (stereo not drawn) [quinine disulphate]
fluorescence quantum efficiency [10]: 0.546

Reference: patent publication US5151517A, “Derivatives of tetrahydro-2,3,6,7,1H,5H,11H-(1)benzopyrano(6,7,8,i,j)quinolizinone-11 usable as markers for organic compounds, particularly biological compounds with a view to their detection by chemiluminescence or fluorescence” (Laboratories Eurobio, priority 1989, dated 1992)
